# Source: patent publication EP1304101A1, “Composition and method for use of pyridinium derivatives in cosmetic and therapeutic applications” (Torrent Pharmaceuticals Ltd, priority 2001, dated 2003)
# Legend:
# AGE-BSA = target: T1, AGE-BSA (Bos taurus, UniProt P02769); assay: In-vitro AGE breaking activity by ELISA (16 weeks AGE-BSA incubated with test compound); format: biochemical, bovine; conditions: for % Breakage: 37°C, 24 hours; for AGE breaking activity compared to PTB: comparison in words based on Table 2
# T1 construct: Bovine serum albumin (fraction V) (BSA); from tissue
# Rat Tail Tendon Collagen = assay: In-vivo AGE breaking: collagen solubility in rat tail tendon of STZ-diabetic rats after 8 weeks of treatment; design: species or system male wister rats; conditions: 8 weeks treatment
# Text: The results are mentioned in Table 3 below:
# A brief summary of observation is as follows.
# [1] = Free radical scavenging activity on ABTS radical cation (absorbance at 730nm); format: biochemical
# Summary of the method: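 ABTS radical cation generated with peroxidase and H2O2 in PBS pH 7.4, incubated 30°C for 30 min. Drug serially diluted in PBS from 0.1mM stock, mixed with radical solution and absorbance read immediately at 730nm against PBS blank. Percent antioxidant activity = [O.D test/O.D control*100]-100.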
# Maillard reaction = assay: AGE inhibiting activity, Method I (BSA + ribose, fluorescence); format: biochemical; conditions: 37° C for 7 days
# Procedure: The following method was used to determine the inhibitory effect of the test compound on Maillard reaction in-vitro.
# Addition of compound was done in aseptic conditions. Sodium azide (0.02%) was also added in this solution in order to prevent microbial growth. A separate tube containing BSA, ribose and sodium azide in the same concentration and buffer as above, but without any test compound, was also incubated as positive control.
# After incubation at 37° C for 7 days, 40 micro litre sample from each tube was removed and diluted with PBS to have final concentration of BSA at 1mg/ml. The fluorescence of all the samples was measured at Excitation Maximum of 355nM and the Emission Maximum of 460nM using f-MAX Fluorimeter (Molecular Device, USA). In order to study the effect of test compound on fluorescence, freshly prepared compound solution was mixed with previously incubated positive control (i.e. BSA + ribose), so as to achieve same concentration of all the components as that of test samples.
# The percent inhibition of test compound was measured as follows: % Inhibition =(F4 - F3)/(F4)X 100 [formula] Where F3 = Fluorescence of BSA + ribose + compound,F4 is fluorescence of incubated (BSA + ribose) + freshly added test compound.
# T1 sequence (P02769 25-607): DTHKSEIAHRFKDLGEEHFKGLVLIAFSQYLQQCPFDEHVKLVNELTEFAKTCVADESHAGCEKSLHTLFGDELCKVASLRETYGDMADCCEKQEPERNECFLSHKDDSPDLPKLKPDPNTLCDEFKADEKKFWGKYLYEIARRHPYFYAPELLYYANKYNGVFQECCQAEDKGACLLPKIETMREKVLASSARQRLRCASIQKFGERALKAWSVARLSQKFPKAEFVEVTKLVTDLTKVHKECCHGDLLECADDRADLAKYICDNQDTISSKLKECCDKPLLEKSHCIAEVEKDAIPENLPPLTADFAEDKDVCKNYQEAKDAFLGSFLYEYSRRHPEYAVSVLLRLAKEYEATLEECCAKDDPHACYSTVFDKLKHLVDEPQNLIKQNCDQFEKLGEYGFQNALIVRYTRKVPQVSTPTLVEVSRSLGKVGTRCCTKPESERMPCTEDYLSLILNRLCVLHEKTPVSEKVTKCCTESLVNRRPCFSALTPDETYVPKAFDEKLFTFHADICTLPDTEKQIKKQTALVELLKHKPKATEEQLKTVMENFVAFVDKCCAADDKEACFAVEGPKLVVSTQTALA
Compound,% Breakage (AGE-BSA; 5 mM test compound),AGE breaking activity compared to PTB (AGE-BSA),% Improvement in collagen solubility with respect to untreated control subject. (Rat Tail Tendon Collagen; 6.0mg/kg),Relative Free Radical Scavenging Activity(%) on ABTS ([1]; 11.5µM),Relative Free Radical Scavenging Activity(%) on ABTS ([1]; 23.0µM),Relative Free Radical Scavenging Activity(%) on ABTS ([1]; 46.0µM),Relative Free Radical Scavenging Activity(%) on ABTS ([1]; 92.5µM),% Improvement in collagen solubility with respect to untreated control subject. (Rat Tail Tendon Collagen; 15.0 mg/kg),Relative Free Radical Scavenging Activity(%) on ABTS ([1]; 23 µM),Relative Free Radical Scavenging Activity(%) on ABTS ([1]; 46 µM),%Inhibition (Day 7) (Maillard reaction; 2.5mM),% Improvement in collagen solubility with respect to untreated control subject. (Rat Tail Tendon Collagen; 7.5mg/kg),% Breakage (AGE-BSA; 10 mM test compound),% Breakage (AGE-BSA; 50 mM test compound),% Improvement in collagen solubility with respect to untreated control subject. (Rat Tail Tendon Collagen; 10.0mg/kg),%Inhibition (Day 7) (Maillard reaction; 10mM)
"O=C(C[n+]1cccc(C(=O)NNC(=O)c2ccc[n+](CC(=O)NC3CC3)c2)c1)NC1CC1 [Compound 39, N, N'-bis-[3-carbonyl-1-(2-cyclopropylamino-2-oxoethyl)pyridinium] hydrazine dichloride]",22.8%,superior,28.00%,43.0%,62.8%,95.6%,98%,–,–,–,–,–,–,–,–,–
"O=C(NNC(=O)c1ccc[n+](CC(=O)c2cccs2)c1)c1ccc[n+](CC(=O)c2cccs2)c1.[Cl-].[Cl-] [Compound 33, N, N'-bis [3-carbonyl-1-(2-thien-2'-yl-2-oxoethyl)pyridinium] hydrazine dichloride]",20%,superior,–,58.4%,–,–,100%,80.45%,72.8%,98.5%,68.4%,–,–,–,–,–
"O=C(NNC(=O)c1ccc[n+](CC(=O)c2cccs2)c1)c1ccc[n+](CC(=O)c2cccs2)c1.[Br-].[Br-] [Compound 6, N, N'-bis [3-carbonyl-1-(2-thien-2'-yl-2-oxoethyl)pyridinium] hydrazine dibromide]",53%,superior,–,–,–,–,–,–,–,–,–,56.70%,–,–,–,–
"CS(=O)(=O)NNC(=O)c1ccc[n+](CC(=O)c2cccs2)c1.[Br-] [Compound 5, 1-(2-thien-2'-yl-2-oxoethyl) -3-(methanesulfonylhydrazinocarbonyl) pyridinium bromide]",–,–,–,47.2%,65.6%,83.7%,100%,–,–,–,–,–,16%,68%,88.80%,70%
